Measured values published in PubChem BioAssay AID179 (DTP/NCI, 2004).
Calls of active or inactive are those of the source.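 Rule for the calls: active = compounds giving half or more protection of infected cells from virus-caused growth loss, again on retest; inactive = the rest.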

System: CEM cells HIV-1 protection, formazan growth assay
Assay: NCI AIDS Antiviral Assay
Settings: for IC50: measured here: growth of uninfected CEM cells
Outline: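 Steps: treat uninfected and HIV-1-infected human CEM cells at five drug levels; quantify growth by soluble formazan; retest any compound reaching 50% protection; classify actives from the retest.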

SMILES | EC50 | IC50 | outcome
COc1cc(C2C(Cl)C(=O)N2n2cnc3ccccc3c2=O)ccc1O (stereo not given) | > 676 µM | 30.2 µM | –
N#CC(C#N)=C(N)/C(C#N)=C/c1cc(O)c(O)c(Br)c1 | > 77.6 µM | > 77.6 µM | –
N#CNC1=NC(N)C(c2nc3ccccc3[nH]2)=C(CCCC(=O)Nc2cccc([N+](=O)[O-])c2)N1 (stereo not given) | > 77.6 µM | > 77.6 µM | –
Nc1ccc2c(c1)C(=O)N1CCC[C@H]1C(=O)N2 | > 200 µM | > 200 µM | –
NCCN.NCCN.O=C([O-])[O-].O=C([O-])[O-].[Co+3] | – | – | inactive
CS(=O)(=O)OCCC(=O)N1CCN(C(=O)CCOS(C)(=O)=O)CC1 | > 200 µM | 35.5 µM | –
O=C(O)c1ccccc1SSC(=S)N1CCOCC1 | > 0.02 µM | 0.000759 µM | –
CC1(Br)OC(=O)C(C)(Br)OC1=O (stereo not given) | > 200 µM | > 200 µM | –
COc1cc([C@H]2Oc3c(OC)cc(/C=C/C(N)=O)cc3[C@@H]2C(N)=O)ccc1O | > 200 µM | > 200 µM | –
CC(=O)CSc1c(-c2ccccc2)c(=O)n(-c2ccccc2)c(=S)n1-c1ccccc1 | > 200 µM | 79.4 µM | –
NC(=O)c1ncn(C2C=CC(CP(=O)(O)O)C2)c1N (stereo not given) | > 200 µM | > 200 µM | –
O=C(O)/C=C/c1ccc[c]([Sb](=[O])([OH])[OH])c1 | 2.82 µM | > 200 µM | –
O=C(/C=C/CC(O)(c1ccccc1)c1ccccc1)Nc1ccccc1Cl | > 19.1 µM | > 19.1 µM | –
NS(=O)(=O)c1ccc2c(c1)OCCOCCOCCOCCO2 | > 200 µM | > 200 µM | –
COC(=O)C(CCC1(C)OCCO1)C(C)=O (stereo not given) | 31.6 µM | 251 µM | –
CCOc1cnn(-c2ccccc2)c(=O)c1SCc1ccc(Cl)c(Cl)c1 | > 33.1 µM | 18.6 µM | –
COCCCCCCCCCCC(=O)O | > 200 µM | > 200 µM | –

SMILES | EC50 | IC50 | outcome
CCCn1c(SCC)c2cc3cc4ccccc4cc3cc2c1-c1nc(F)nc(F)n1 | > 30.9 µM | 22.4 µM | –
CC(=O)Oc1c(Cl)cc(C(=CCC[C@H]2CC[C@@]3(C)[C@@H](CC[C@@H]4[C@@H]3CC[C@]3(C)[C@@H]([C@H](C)CCCC(C)C)CC[C@@H]43)C2)c2cc(Cl)c(OC(C)=O)c(C(=O)O)c2)cc1C(=O)O | 162 µM | 174 µM | –
O=C(CC(=O)c1ccccc1)C(=O)Nc1ccc(Cl)cc1 | > 12 µM | > 12 µM | –
NNc1ncnc2c1ncn2C1OC(CO)CC1F (stereo not given) | > 148 µM | > 148 µM | –
Cc1ccc(-c2nnc3s/c(=C\c4ccc(N(C)C)cc4)c(=O)n23)cc1 | > 27.5 µM | 16.2 µM | –
CCCCCC(/C=C/C1CCC(=O)C1CC#C[Si](C)(C)C)OCc1ccccc1 (stereo not given) | > 200 µM | 27.5 µM | –
CNC1C(O)CC(OC2C/C=C(\C)C/C(C)=C/C=C/CCC(C)CNC(=O)/C=C/C=C/C2C)OC1C (stereo not given) | > 37.2 µM | 1.95 µM | –
N#Cc1cscc1C#N | > 200 µM | > 200 µM | –
O=CCC(O)C(O)C(O)CO (stereo not given) | > 759 µM | > 759 µM | –
N[C@@H](C[S-])C(=O)O.O=[N+]([O-])O.[Ag+] | > 200 µM | 126 µM | –
Cc1c(Cc2ccccc2)c(=O)oc2cc(O)ccc12 | > 97.7 µM | 93.3 µM | –
COC1OCC(SC(=O)c2ccccc2)C(O)C1O (stereo not given) | > 200 µM | 141 µM | –
CCCCCCCCCCO/N=C\c1c2c(O)c3c(O)c(C)c4c(c3c1O)C(=O)C(C)(O/C=C\C(OC)C(C)C(OC(C)=O)C(C)C(O)C(C)C(O)C(C)/C=C\C=C(\C)C(=O)N2)O4 (stereo not given) | > 200 µM | 3.02 µM | –
Cc1ccc(S(=O)(=O)OC(c2ccc(Cl)cc2Cl)C2OC(=O)c3ccccc32)cc1 (stereo not given) | > 40.7 µM | > 40.7 µM | –
NC(=S)N/N=C1\C(=O)N(c2cccc([N+](=O)[O-])c2)C(=O)C1C(=O)Nc1cccc([N+](=O)[O-])c1 (stereo not given) | – | – | inactive
Cc1c(CO)[n+](=O)c2ccccc2n1[O-] | > 200 µM | > 200 µM | –
Nc1ccc(C(=O)N/C(=C\c2ccc3c(c2)OCO3)c2nc3ccc4c(c3[nH]2)C(=O)c2ccccc2C4=O)cc1 | – | – | inactive
